Assay results published in PubChem BioAssay AID248 (DTP/NCI, 2004).
“And” between values parts separate entries of the source, which are not always exact repeats. Equal entries are not always repeated. Inconclusive results and toxic doses are left out. No stated cut-off is given here; in the data, active means T/C of 150% or more; inactive means T/C below 125%.

Test system: L1210 leukemia ip in BDF1 mice, survival T/C
Assay: NCI In Vivo Anticancer Drug Screen. Data for tumor model L1210 Leukemia (intraperitoneal) in B6D2F1 (BDF1) mice
Conditions: endpoint: mean survival time, higher = longer survival
Summary of the method: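 Survival endpoint. Drug-treated group vs vehicle group, expressed as T divided by C. Tumor passaged by transplantation.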

[1] = dose: 100.0 mg/kg/injection, schedule: Q01DX009 (ip), vehicle: saline with Tween-80
[2] = dose: 100.0 mg/kg/injection, schedule: Q04DX003 (ip), vehicle: saline with Tween-80
[3] = dose: 200.0 mg/kg/injection, schedule: Q01DX009 (ip), vehicle: saline with Tween-80
[4] = dose: 200.0 mg/kg/injection, schedule: Q04DX003 (ip), vehicle: saline with Tween-80
[5] = dose: 400.0 mg/kg/injection, schedule: Q04DX003 (ip), vehicle: saline with Tween-80
[6] = dose: 100.0 mg/kg/injection, schedule: Q01DX009 (ip), vehicle: saline
[7] = dose: 100.0 mg/kg/injection, schedule: Q04DX003 (ip), vehicle: saline
[8] = dose: 200.0 mg/kg/injection, schedule: Q01DX009 (ip), vehicle: saline
[9] = dose: 200.0 mg/kg/injection, schedule: Q04DX003 (ip), vehicle: saline
[10] = dose: 100.0 mg/kg/injection, schedule: Q01DX001 (ip), vehicle: carboxymethylcellulose (CMC)
[11] = dose: 200.0 mg/kg/injection, schedule: Q01DX001 (ip), vehicle: carboxymethylcellulose (CMC)
[12] = dose: 400.0 mg/kg/injection, schedule: Q01DX001 (ip), vehicle: carboxymethylcellulose (CMC)
[13] = dose: 200.0 mg/kg/injection, schedule: Q01DX001 (ip), vehicle: saline
[14] = dose: 400.0 mg/kg/injection, schedule: Q01DX001 (ip), vehicle: saline
[15] = dose: 100.0 mg/kg/injection, schedule: Q01DX009 (ip), vehicle: Klucel (hydroxypropylcellulose) (HPC)
[16] = dose: 200.0 mg/kg/injection, schedule: Q01DX009 (ip), vehicle: Klucel (hydroxypropylcellulose) (HPC)
[17] = dose: 400.0 mg/kg/injection, schedule: Q01DX009 (ip), vehicle: Klucel (hydroxypropylcellulose) (HPC)
[18] = dose: 100.0 mg/kg/injection, schedule: Q04DX002 (ip), vehicle: saline
[19] = dose: 100.0 mg/kg/injection, schedule: Q01DX001 (ip), vehicle: saline
[20] = dose: 100.0 mg/kg/injection, schedule: Q04DX003 (ip), vehicle: Klucel (hydroxypropylcellulose) (HPC)
[21] = dose: 200.0 mg/kg/injection, schedule: Q04DX003 (ip), vehicle: Klucel (hydroxypropylcellulose) (HPC)
[22] = dose: 400.0 mg/kg/injection, schedule: Q04DX003 (ip), vehicle: Klucel (hydroxypropylcellulose) (HPC)
[23] = dose: 400.0 mg/kg/injection, schedule: Q04DX003 (ip), vehicle: saline
[24] = dose: 400.0 mg/kg/injection, schedule: Q01DX009 (ip), vehicle: saline
[25] = dose: 50.0 mg/kg/injection, schedule: Q01DX009 (ip), vehicle: saline with Tween-80

Measured: T/C

N=C(N)SCc1c(-c2ccccc2)oc(-c2ccccc2)c1CSC(=N)N
inactive: dose: 6.25 mg/kg/injection, schedule: Q01DX009 (ip), vehicle: saline with Tween-80 103 % of control | dose: 12.5 mg/kg/injection, schedule: Q01DX009 (ip), vehicle: saline with Tween-80 101 % of control | dose: 12.5 mg/kg/injection, schedule: Q04DX003 (ip), vehicle: saline with Tween-80 97 % of control | dose: 25.0 mg/kg/injection, schedule: Q04DX003 (ip), vehicle: saline with Tween-80 101 % of control

CC=NC(C[S-])C(=O)O.CC=NC(C[S-])C(=O)O.[Fe+2] (stereo not drawn)
inactive: [1] 92 % of control | [2] 94 % of control | [3] 91 % of control | [4] 93 % of control | dose: 400.0 mg/kg/injection, schedule: Q01DX009 (ip), vehicle: saline with Tween-80 87 % of control | [5] 88 % of control

CNCCN1CCCC1
inactive: dose: 50.0 mg/kg/injection, schedule: Q01DX009 (ip), vehicle: saline 95 % of control | [6] 103 % of control | [7] 102 % of control | [8] 101 % of control | [9] 109 % of control

CC(O)(c1ccccc1)c1ccccc1S(=O)(=O)Nc1ccccc1 (stereo not drawn)
inactive: [10] 101 % of control | [11] 93 % of control | [12] 95 % of control

C/C(=N\N=C(/C)c1cccc(N)c1)c1cccc(N)c1
inactive: [13] 87 % of control | [14] 87 % of control

COc1c(OC)c2c3c(c(-c4c(C)cc5c(C(C)C)c(OC)c(OC)c6c5c4OC6OC)c(C)cc3c1C(C)C)OC2OC (stereo not drawn)
inactive: [15] 102 % of control | [16] 102 % of control | [17] 107 % of control

CSc1nc(C)c(Br)c(N2CC2)n1
inactive: dose: 50.0 mg/kg/injection, schedule: Q01DX Z (ip), vehicle: methylcellulose (MC) 95 % of control

O=C(CCl)NP(=O)(O)OCc1ccccc1
inactive: dose: 25.0 mg/kg/injection, schedule: Q04DX002 (ip), vehicle: saline 102 % of control | dose: 50.0 mg/kg/injection, schedule: Q04DX002 (ip), vehicle: saline 94 % of control | [18] 91 % of control

O=c1[nH]c2c(cnn2-c2ccccc2)c(=O)n1OS(=O)(=O)c1ccccc1
inactive: dose: 50.0 mg/kg/injection, schedule: Q01DX001 (ip), vehicle: saline 103 % of control | [19] 103 % of control | [13] 100 % of control | [14] 97 % of control

COc1cc(O)c([N+](=O)[O-])cc1[N+](=O)[O-]
inactive: [10] 96 % of control | [11] 91 % of control | [12] 100 % of control

COC1(c2ccc([N+](=O)[O-])o2)OC1(C)C (stereo not drawn)
inactive: [1] 98 % of control | [2] 113 % of control | [3] 95 % of control | [4] 109 % of control | [5] 96 % of control

O=C1NC2C3C=CC(C3)C12 (stereo not drawn)
inactive: dose: 25.0 mg/kg/injection, schedule: Q04DX002 (ip), vehicle: Klucel (hydroxypropylcellulose) (HPC) 114 % of control | dose: 50.0 mg/kg/injection, schedule: Q04DX002 (ip), vehicle: Klucel (hydroxypropylcellulose) (HPC) 93 % of control | dose: 100.0 mg/kg/injection, schedule: Q04DX002 (ip), vehicle: Klucel (hydroxypropylcellulose) (HPC) 119 % of control and 86 % of control

CCCC(C)C(=O)OCP(=O)(COC(=O)C(C)CCC)COC(=O)C(C)CCC (stereo not drawn)
inactive: dose: 100.0 mg/kg/injection, schedule: Q01DX001 (ip), vehicle: saline with Tween-80 97 % of control | dose: 200.0 mg/kg/injection, schedule: Q01DX001 (ip), vehicle: saline with Tween-80 89 % of control

[Cu+2].[NH-]C(CC(=O)O)C(=O)O.[NH-]C(CC(=O)O)C(=O)O (stereo not drawn)
inactive: dose: 5.0 mg/kg/injection, schedule: Q01DX001 (ip), vehicle: saline 96 % of control | dose: 10.0 mg/kg/injection, schedule: Q01DX001 (ip), vehicle: saline 96 % of control | dose: 20.0 mg/kg/injection, schedule: Q01DX001 (ip), vehicle: saline 91 % of control | dose: 40.0 mg/kg/injection, schedule: Q01DX001 (ip), vehicle: saline 96 % of control

CCOC(=O)CCc1c(C(=O)OCC)[nH]c(C)c1C(=O)OC(C)(C)C
inactive: dose: 100.0 mg/kg/injection, schedule: Q01DX001 (ip), vehicle: Klucel (hydroxypropylcellulose) (HPC) 105 % of control | dose: 200.0 mg/kg/injection, schedule: Q01DX001 (ip), vehicle: Klucel (hydroxypropylcellulose) (HPC) 124 % of control | dose: 400.0 mg/kg/injection, schedule: Q01DX001 (ip), vehicle: Klucel (hydroxypropylcellulose) (HPC) 95 % of control

O=c1[nH]nc(-c2ccc(Br)cc2)s1
inactive: [20] 101 % of control | [21] 95 % of control | [22] 98 % of control

Cn1cnc(N)c1C(N)=S
inactive: [7] 100 % of control | [16] 98 % of control | [9] 92 % of control | [17] 92 % of control | [23] 104 % of control

O=C1c2cc(Cl)ccc2-c2ccc([N+](=O)[O-])cc21
inactive: [20] 100 % of control | [21] 97 % of control | [22] 106 % of control

CCS(=O)(=O)c1ccc(C)cc1
inactive: [19] 95 % of control | [6] 89 % of control | [7] 109 % of control | [13] 93 % of control | [8] 95 % of control | [9] 95 % of control | [14] 96 % of control | [24] 87 % of control | [23] 98 % of control

O=C(c1ccccc1[N+](=O)[O-])N(O)c1ccc(/C=C/c2ccccc2)cc1
inactive: [10] 93 % of control | [11] 95 % of control | [12] 95 % of control

C=CCOc1ccccc1OC
inactive: [25] 96 % of control | [1] 100 % of control | [2] 103 % of control | [3] 95 % of control | [4] 112 % of control

COC1CCCCC1I (stereo not drawn)
inactive: [25] 95 % of control | [1] 95 % of control | [3] 93 % of control

NC(N)=NCCCC(N)C(=O)NCCCCCCNC(=O)C(N)CCCN=C(N)N (stereo not drawn)
inactive: dose: 10.0 mg/kg/injection, schedule: Q01DX Z (ip), vehicle: saline 97 % of control | dose: 30.0 mg/kg/injection, schedule: Q01DX Z (ip), vehicle: saline 108 % of control | dose: 100.0 mg/kg/injection, schedule: Q01DX Z (ip), vehicle: saline 90 % of control

CCc1ccc(NC(=O)CCC(=O)O)cc1
inactive: [15] 102 % of control | [16] 93 % of control | [17] 90 % of control

CC(CN)NCc1ccccc1 (stereo not drawn)
inactive: [6] 96 % of control | [7] 103 % of control | [8] 94 % of control | [9] 103 % of control | [23] 95 % of control

CCS(=O)(=O)CC(C)O (stereo not drawn)
inactive: [6] 90 % of control | [18] 101 % of control | [8] 93 % of control | [24] 104 % of control | dose: 400.0 mg/kg/injection, schedule: Q04DX002 (ip), vehicle: saline 108 % of control
